Experimental data from the NIST ThermoML archive (doi:10.1016/j.fluid.2008.03.004).
± gives the expanded uncertainty stated by the source.

Columns and labels:
[1] = 101 kPa, Liquid; for speed of sound: Sing-around technique in a fixed-path interferometer
[2] = xn = mol fraction of the nth substance listed; conditions: 101 kPa, Liquid; for speed of sound: Sing-around technique in a fixed-path interferometer

CCOC(C)(C)C [2-ethoxy-2-methylpropane]
[1]
Conditions	mass density [kg/m3]	speed of sound [m/s]
288.15 K	744.955 ± 0.55	1076.4 ± 2.2
290.65 K	742.482 ± 0.56	1065.1 ± 2.2
293.15 K	739.947 ± 0.56	1053.7 ± 2.2
295.65 K	737.374 ± 0.56	1042.2 ± 2.2
298.15 K	734.806 ± 0.57	1031 ± 2.2
300.65 K	732.225 ± 0.57	1019.8 ± 2.2
303.15 K	729.647 ± 0.57	1008.6 ± 2.2
305.65 K	727.038 ± 0.58	997.52 ± 2.2
308.15 K	724.443 ± 0.58	986.39 ± 2.2
310.65 K	721.826 ± 0.59	975.42 ± 2.2
313.15 K	719.179 ± 0.59	964.53 ± 2.2
315.65 K	716.527 ± 0.59	953.54 ± 2.2
318.15 K	713.96 ± 0.6	942.67 ± 2.2
320.65 K	711.25 ± 0.6	931.73 ± 2.2
323.15 K	708.642 ± 0.61	920.73 ± 2.2

Cc1ccc(C)cc1 [1,4-dimethylbenzene] + CCOC(C)(C)C
[2], x2 = 0
Conditions	mass density [kg/m3]	speed of sound [m/s]
288.15 K	865.354 ± 0.37	1347.9 ± 2.2
290.65 K	863.184 ± 0.38	1336.9 ± 2.2
293.15 K	861.015 ± 0.38	1326.1 ± 2.2
295.65 K	858.846 ± 0.38	1315.6 ± 2.2
298.15 K	856.675 ± 0.39	1305.4 ± 2.2
300.65 K	854.501 ± 0.39	1295.3 ± 2.2
303.15 K	852.326 ± 0.39	1285.4 ± 2.2
305.65 K	850.148 ± 0.4	1275.6 ± 2.2
308.15 K	847.969 ± 0.4	1266.1 ± 2.2
310.65 K	845.784 ± 0.4	1256.4 ± 2.2
313.15 K	843.599 ± 0.41	1246.8 ± 2.2
315.65 K	841.41 ± 0.41	1237.6 ± 2.2
318.15 K	839.22 ± 0.41	1228.1 ± 2.2
320.65 K	837.031 ± 0.41	1220.5 ± 2.2
323.15 K	834.849 ± 0.42	1211 ± 2.2

Cc1ccccc1C [1,2-dimethylbenzene]
[1]
Conditions	mass density [kg/m3]	speed of sound [m/s]
288.15 K	883.36 ± 0.35	1381.3 ± 2.2
290.65 K	881.265 ± 0.35	1371.8 ± 2.2
293.15 K	879.168 ± 0.35	1362.2 ± 2.2
295.65 K	877.069 ± 0.36	1351.8 ± 2.2
298.15 K	874.968 ± 0.36	1341.5 ± 2.2
300.65 K	872.865 ± 0.36	1331.2 ± 2.2
303.15 K	870.759 ± 0.36	1321 ± 2.2
305.65 K	868.65 ± 0.37	1310.8 ± 2.2
308.15 K	866.538 ± 0.37	1300.7 ± 2.2
310.65 K	864.422 ± 0.38	1290.6 ± 2.2
313.15 K	862.302 ± 0.38	1280.6 ± 2.2
315.65 K	860.179 ± 0.38	1270.5 ± 2.2
318.15 K	858.054 ± 0.38	1260.6 ± 2.2
320.65 K	855.927 ± 0.39	1250.7 ± 2.2
323.15 K	853.803 ± 0.39	1240.9 ± 2.2

COC(C)(C)C [2-methoxy-2-methylpropane] + Cc1cccc(C)c1
[2], x1 = 1
Conditions	mass density [kg/m3]	speed of sound [m/s]
288.15 K	744.861 ± 0.55	1083.4 ± 2.2
290.65 K	742.259 ± 0.56	1071.6 ± 2.2
293.15 K	739.654 ± 0.56	1060 ± 2.2
295.65 K	737.036 ± 0.56	1048.5 ± 2.2
298.15 K	734.406 ± 0.57	1036.9 ± 2.2
300.65 K	731.766 ± 0.57	1025.4 ± 2.2
303.15 K	729.112 ± 0.58	1013.9 ± 2.2
305.65 K	726.444 ± 0.58	1002.4 ± 2.2
308.15 K	723.763 ± 0.58	990.99 ± 2.2
310.65 K	721.069 ± 0.59	979.62 ± 2.2
313.15 K	718.357 ± 0.59	968.16 ± 2.2
315.65 K	715.636 ± 0.6	956.8 ± 2.2
318.15 K	712.897 ± 0.6	945.54 ± 2.2
320.65 K	710.141 ± 0.6	934.24 ± 2.2
323.15 K	707.381 ± 0.61	922.97 ± 2.2

COC(C)(C)C [2-methoxy-2-methylpropane]
[1]
Conditions	mass density [kg/m3]	speed of sound [m/s]
288.15 K	744.861 ± 0.55	1083.4 ± 2.2
290.65 K	742.259 ± 0.56	1071.6 ± 2.2
293.15 K	739.654 ± 0.56	1060 ± 2.2
295.65 K	737.036 ± 0.56	1048.5 ± 2.2
298.15 K	734.406 ± 0.57	1036.9 ± 2.2
300.65 K	731.766 ± 0.57	1025.4 ± 2.2
303.15 K	729.112 ± 0.58	1013.9 ± 2.2
305.65 K	726.444 ± 0.58	1002.4 ± 2.2
308.15 K	723.763 ± 0.58	990.99 ± 2.2
310.65 K	721.069 ± 0.59	979.62 ± 2.2
313.15 K	718.357 ± 0.59	968.16 ± 2.2
315.65 K	715.636 ± 0.6	956.8 ± 2.2
318.15 K	712.897 ± 0.6	945.54 ± 2.2
320.65 K	710.141 ± 0.6	934.24 ± 2.2
323.15 K	707.381 ± 0.61	922.97 ± 2.2

COC(C)(C)C [2-methoxy-2-methylpropane] + Cc1ccccc1C
[2], x1 = 1
Conditions	mass density [kg/m3]	speed of sound [m/s]
288.15 K	744.861 ± 0.55	1083.4 ± 2.2
290.65 K	742.259 ± 0.56	1071.6 ± 2.2
293.15 K	739.654 ± 0.56	1060 ± 2.2
295.65 K	737.036 ± 0.56	1048.5 ± 2.2
298.15 K	734.406 ± 0.57	1036.9 ± 2.2
300.65 K	731.766 ± 0.57	1025.4 ± 2.2
303.15 K	729.112 ± 0.58	1013.9 ± 2.2
305.65 K	726.444 ± 0.58	1002.4 ± 2.2
308.15 K	723.763 ± 0.58	990.99 ± 2.2
310.65 K	721.069 ± 0.59	979.62 ± 2.2
313.15 K	718.357 ± 0.59	968.16 ± 2.2
315.65 K	715.636 ± 0.6	956.8 ± 2.2
318.15 K	712.897 ± 0.6	945.54 ± 2.2
320.65 K	710.141 ± 0.6	934.24 ± 2.2
323.15 K	707.381 ± 0.61	922.97 ± 2.2

Cc1ccccc1C [1,2-dimethylbenzene] + CCOC(C)(C)C
[2], x2 = 0
Conditions	mass density [kg/m3]	speed of sound [m/s]
288.15 K	883.36 ± 0.35	1381.3 ± 2.2
290.65 K	881.265 ± 0.35	1371.8 ± 2.2
293.15 K	879.168 ± 0.35	1362.2 ± 2.2
295.65 K	877.069 ± 0.36	1351.8 ± 2.2
298.15 K	874.968 ± 0.36	1341.5 ± 2.2
300.65 K	872.865 ± 0.36	1331.2 ± 2.2
303.15 K	870.759 ± 0.36	1321 ± 2.2
305.65 K	868.65 ± 0.37	1310.8 ± 2.2
308.15 K	866.538 ± 0.37	1300.7 ± 2.2
310.65 K	864.422 ± 0.38	1290.6 ± 2.2
313.15 K	862.302 ± 0.38	1280.6 ± 2.2
315.65 K	860.179 ± 0.38	1270.5 ± 2.2
318.15 K	858.054 ± 0.38	1260.6 ± 2.2
320.65 K	855.927 ± 0.39	1250.7 ± 2.2
323.15 K	853.803 ± 0.39	1240.9 ± 2.2

Cc1cccc(C)c1 [1,3-dimethylbenzene] + CCOC(C)(C)C
[2], x2 = 0
Conditions	mass density [kg/m3]	speed of sound [m/s]
288.15 K	868.459 ± 0.37	1362.7 ± 2.2
290.65 K	866.318 ± 0.37	1352.1 ± 2.2
293.15 K	864.177 ± 0.38	1341.7 ± 2.2
295.65 K	862.035 ± 0.38	1331.3 ± 2.2
298.15 K	859.89 ± 0.38	1320.9 ± 2.2
300.65 K	857.742 ± 0.38	1310.6 ± 2.2
303.15 K	855.593 ± 0.39	1300.3 ± 2.2
305.65 K	853.441 ± 0.39	1290 ± 2.2
308.15 K	851.282 ± 0.39	1279.8 ± 2.2
310.65 K	849.122 ± 0.4	1269.6 ± 2.2
313.15 K	846.958 ± 0.4	1259.5 ± 2.2
315.65 K	844.792 ± 0.4	1249.3 ± 2.2
318.15 K	842.622 ± 0.41	1239.3 ± 2.2
320.65 K	840.452 ± 0.41	1229.3 ± 2.2
323.15 K	838.289 ± 0.41	1219.5 ± 2.2

Cc1ccc(C)cc1 [1,4-dimethylbenzene] + COC(C)(C)C
[2], x2 = 0
Conditions	mass density [kg/m3]	speed of sound [m/s]
288.15 K	865.354 ± 0.37	1347.9 ± 2.2
290.65 K	863.184 ± 0.38	1336.9 ± 2.2
293.15 K	861.015 ± 0.38	1326.1 ± 2.2
295.65 K	858.846 ± 0.38	1315.6 ± 2.2
298.15 K	856.675 ± 0.39	1305.4 ± 2.2
300.65 K	854.501 ± 0.39	1295.3 ± 2.2
303.15 K	852.326 ± 0.39	1285.4 ± 2.2
305.65 K	850.148 ± 0.4	1275.6 ± 2.2
308.15 K	847.969 ± 0.4	1266.1 ± 2.2
310.65 K	845.784 ± 0.4	1256.4 ± 2.2
313.15 K	843.599 ± 0.41	1246.8 ± 2.2
315.65 K	841.41 ± 0.41	1237.6 ± 2.2
318.15 K	839.22 ± 0.41	1228.1 ± 2.2
320.65 K	837.031 ± 0.41	1220.5 ± 2.2
323.15 K	834.849 ± 0.42	1211 ± 2.2

Cc1cccc(C)c1 [1,3-dimethylbenzene]
[1]
Conditions	mass density [kg/m3]	speed of sound [m/s]
288.15 K	868.459 ± 0.37	1362.7 ± 2.2
290.65 K	866.318 ± 0.37	1352.1 ± 2.2
293.15 K	864.177 ± 0.38	1341.7 ± 2.2
295.65 K	862.035 ± 0.38	1331.3 ± 2.2
298.15 K	859.89 ± 0.38	1320.9 ± 2.2
300.65 K	857.742 ± 0.38	1310.6 ± 2.2
303.15 K	855.593 ± 0.39	1300.3 ± 2.2
305.65 K	853.441 ± 0.39	1290 ± 2.2
308.15 K	851.282 ± 0.39	1279.8 ± 2.2
310.65 K	849.122 ± 0.4	1269.6 ± 2.2
313.15 K	846.958 ± 0.4	1259.5 ± 2.2
315.65 K	844.792 ± 0.4	1249.3 ± 2.2
318.15 K	842.622 ± 0.41	1239.3 ± 2.2
320.65 K	840.452 ± 0.41	1229.3 ± 2.2
323.15 K	838.289 ± 0.41	1219.5 ± 2.2

Cc1ccc(C)cc1 [1,4-dimethylbenzene]
[1]
Conditions	mass density [kg/m3]	speed of sound [m/s]
288.15 K	865.354 ± 0.37	1347.9 ± 2.2
290.65 K	863.184 ± 0.38	1336.9 ± 2.2
293.15 K	861.015 ± 0.38	1326.1 ± 2.2
295.65 K	858.846 ± 0.38	1315.6 ± 2.2
298.15 K	856.675 ± 0.39	1305.4 ± 2.2
300.65 K	854.501 ± 0.39	1295.3 ± 2.2
303.15 K	852.326 ± 0.39	1285.4 ± 2.2
305.65 K	850.148 ± 0.4	1275.6 ± 2.2
308.15 K	847.969 ± 0.4	1266.1 ± 2.2
310.65 K	845.784 ± 0.4	1256.4 ± 2.2
313.15 K	843.599 ± 0.41	1246.8 ± 2.2
315.65 K	841.41 ± 0.41	1237.6 ± 2.2
318.15 K	839.22 ± 0.41	1228.1 ± 2.2
320.65 K	837.031 ± 0.41	1220.5 ± 2.2
323.15 K	834.849 ± 0.42	1211 ± 2.2
